PubChem BioAssay AID248 (DTP/NCI, 2004)
Values joined by “and” are separate entries in the source; they are usually repeats but may differ in a detail not shown here. Equal entries are not always repeated. Toxic doses and inconclusive results are not listed. No stated cut-off is given here; in the data, active means T/C of 150% or more; inactive means T/C below 125%.

System: L1210 leukemia ip in BDF1 mice, survival T/C
Assay: NCI In Vivo Anticancer Drug Screen. Data for tumor model L1210 Leukemia (intraperitoneal) in B6D2F1 (BDF1) mice
Settings: endpoint: mean survival time, higher = longer survival
Method in brief: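 Ratio derived from survival: compound-dosed mice over vehicle-dosed mice, all bearing a transplantable tumor.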

[1] = dose: 50.0 mg/kg/injection, schedule: Q01DX009 (ip), vehicle: saline
[2] = dose: 100.0 mg/kg/injection, schedule: Q04DX003 (ip), vehicle: saline
[3] = dose: 100.0 mg/kg/injection, schedule: Q01DX009 (ip), vehicle: saline with Tween-80
[4] = dose: 200.0 mg/kg/injection, schedule: Q01DX009 (ip), vehicle: saline with Tween-80
[5] = dose: 100.0 mg/kg/injection, schedule: Q04DX003 (ip), vehicle: saline with Tween-80
[6] = dose: 200.0 mg/kg/injection, schedule: Q04DX003 (ip), vehicle: saline with Tween-80
[7] = dose: 400.0 mg/kg/injection, schedule: Q04DX003 (ip), vehicle: saline with Tween-80
[8] = dose: 100.0 mg/kg/injection, schedule: Q01DX009 (ip), vehicle: saline
[9] = dose: 200.0 mg/kg/injection, schedule: Q01DX009 (ip), vehicle: saline
[10] = dose: 200.0 mg/kg/injection, schedule: Q04DX003 (ip), vehicle: saline
[11] = dose: 100.0 mg/kg/injection, schedule: Q01DX001 (ip), vehicle: saline
[12] = dose: 200.0 mg/kg/injection, schedule: Q01DX001 (ip), vehicle: saline
[13] = dose: 400.0 mg/kg/injection, schedule: Q01DX001 (ip), vehicle: saline
[14] = dose: 100.0 mg/kg/injection, schedule: Q01DX009 (ip), vehicle: Klucel (hydroxypropylcellulose) (HPC)
[15] = dose: 200.0 mg/kg/injection, schedule: Q01DX009 (ip), vehicle: Klucel (hydroxypropylcellulose) (HPC)
[16] = dose: 100.0 mg/kg/injection, schedule: Q01DX001 (ip), vehicle: carboxymethylcellulose (CMC)
[17] = dose: 200.0 mg/kg/injection, schedule: Q01DX001 (ip), vehicle: carboxymethylcellulose (CMC)
[18] = dose: 400.0 mg/kg/injection, schedule: Q01DX001 (ip), vehicle: carboxymethylcellulose (CMC)
[19] = dose: 100.0 mg/kg/injection, schedule: Q04DX003 (ip), vehicle: Klucel (hydroxypropylcellulose) (HPC)
[20] = dose: 200.0 mg/kg/injection, schedule: Q04DX003 (ip), vehicle: Klucel (hydroxypropylcellulose) (HPC)

Measured: T/C

CN(C)c1ccc(N=Cc2cc[n+](C)cc2)cc1
inactive: dose: 25.0 mg/kg/injection, schedule: Q01DX009 (ip), vehicle: saline 92 % of control | [1] 100 % of control | [2] 87 % of control

O=NN(C(=O)c1ccccc1)C(c1ccccc1)c1ccc(Cl)cc1 (stereo unspecified)
inactive: dose: 45.0 mg/kg/injection, schedule: Q04DX002 (ip), vehicle: Klucel (hydroxypropylcellulose) (HPC) 91 % of control | dose: 90.0 mg/kg/injection, schedule: Q04DX002 (ip), vehicle: Klucel (hydroxypropylcellulose) (HPC) 91 % of control | dose: 180.0 mg/kg/injection, schedule: Q04DX002 (ip), vehicle: Klucel (hydroxypropylcellulose) (HPC) 97 % of control

O=C(c1ccccc1)c1nc2ccccc2s1
inactive: dose: 12.5 mg/kg/injection, schedule: Q01DX005 (ip), vehicle: other 94 % of control | dose: 25.0 mg/kg/injection, schedule: Q01DX005 (ip), vehicle: other 90 % of control | dose: 50.0 mg/kg/injection, schedule: Q01DX005 (ip), vehicle: other 89 % of control | dose: 100.0 mg/kg/injection, schedule: Q01DX005 (ip), vehicle: other 89 % of control | dose: 200.0 mg/kg/injection, schedule: Q01DX005 (ip), vehicle: other 89 % of control

O=C1C=CC(=O)C=C1
inactive: dose: 0.5 mg/kg/injection, schedule: Q01DX009 (ip), vehicle: saline 97 % of control | dose: 1.0 mg/kg/injection, schedule: Q01DX009 (ip), vehicle: saline 97 % of control | dose: 2.0 mg/kg/injection, schedule: Q01DX009 (ip), vehicle: saline 94 % of control | dose: 4.0 mg/kg/injection, schedule: Q01DX009 (ip), vehicle: saline 94 % of control

CC(C)NC(=O)CCSCCC(=O)NC(C)C
inactive: dose: 200.0 mg/kg/injection, schedule: Q04DX002 (ip), vehicle: other 94 % of control | dose: 400.0 mg/kg/injection, schedule: Q04DX002 (ip), vehicle: other 94 % of control

COC(=O)c1ccc(OC(=O)Nc2cccc(Cl)c2C)cc1
inactive: [3] 98 % of control and 100 % of control | dose: 100.0 mg/kg/injection, schedule: Q04DX002 (ip), vehicle: saline with Tween-80 93 % of control and 91 % of control | [4] 95 % of control and 91 % of control | dose: 200.0 mg/kg/injection, schedule: Q04DX002 (ip), vehicle: saline with Tween-80 96 % of control and 87 % of control | dose: 400.0 mg/kg/injection, schedule: Q04DX002 (ip), vehicle: saline with Tween-80 96 % of control and 97 % of control

COC1OCC(N=[N+]=[N-])C(OS(C)(=O)=O)C1OS(C)(=O)=O (stereo unspecified)
inactive: [5] 94 % of control | [6] 90 % of control | [7] 92 % of control

COC1OC1(C)C (stereo unspecified)
inactive: [8] 102 % of control | [2] 104 % of control | [9] 103 % of control | [10] 102 % of control | dose: 400.0 mg/kg/injection, schedule: Q01DX009 (ip), vehicle: saline 100 % of control | dose: 400.0 mg/kg/injection, schedule: Q04DX003 (ip), vehicle: saline 98 % of control

CCOC(=S)SCC(=O)c1cccc([N+](=O)[O-])c1
inactive: [11] 107 % of control | [12] 103 % of control | [13] 101 % of control

CCN(CC)C/C=C/C(C)Nc1ccnc2cc(Cl)ccc12 (stereo unspecified)
inactive: dose: 5.0 mg/kg/injection, schedule: Q04DX002 (ip), vehicle: saline with Tween-80 98 % of control | dose: 10.0 mg/kg/injection, schedule: Q04DX002 (ip), vehicle: saline with Tween-80 98 % of control | dose: 20.0 mg/kg/injection, schedule: Q04DX002 (ip), vehicle: saline with Tween-80 94 % of control

COc1ccc([N+](=O)[O-])cc1NC(=S)NC(=O)c1cccc(Br)c1
inactive: [14] 92 % of control | [15] 92 % of control | dose: 400.0 mg/kg/injection, schedule: Q01DX009 (ip), vehicle: Klucel (hydroxypropylcellulose) (HPC) 97 % of control

NC(CSS(=O)(=O)O)=NCC12CC3CC(CC(C3)C1)C2
inactive: dose: 12.5 mg/kg/injection, schedule: Q04DX002 (ip), vehicle: Klucel (hydroxypropylcellulose) (HPC) 104 % of control | dose: 25.0 mg/kg/injection, schedule: Q04DX002 (ip), vehicle: Klucel (hydroxypropylcellulose) (HPC) 95 % of control

O=C(c1cccc([N+](=O)[O-])c1)c1ccc(O)cc1O
inactive: dose: 100.0 mg/kg/injection, schedule: Q01DX001 (ip), vehicle: other 103 % of control | dose: 100.0 mg/kg/injection, schedule: Q04DX003 (ip), vehicle: other 103 % of control | dose: 200.0 mg/kg/injection, schedule: Q01DX001 (ip), vehicle: other 95 % of control | dose: 200.0 mg/kg/injection, schedule: Q04DX003 (ip), vehicle: other 100 % of control | dose: 400.0 mg/kg/injection, schedule: Q01DX001 (ip), vehicle: other 95 % of control | dose: 400.0 mg/kg/injection, schedule: Q04DX003 (ip), vehicle: other 100 % of control

Nc1cccc2c1C(=O)c1ccccc1-2
inactive: [3] 97 % of control | [4] 103 % of control | dose: 400.0 mg/kg/injection, schedule: Q01DX009 (ip), vehicle: saline with Tween-80 97 % of control

CN1CCC=C(C(=O)N(c2ccccc2)c2ccccc2)C1
inactive: [1] 106 % of control | [8] 101 % of control | [2] 93 % of control | [9] 97 % of control | [10] 98 % of control

COC(=O)c1cn(/C=C/c2ccccc2)cn1
inactive: dose: 87.5 mg/kg/injection, schedule: Q04DX003 (ip), vehicle: Klucel (hydroxypropylcellulose) (HPC) 94 % of control | dose: 175.0 mg/kg/injection, schedule: Q04DX003 (ip), vehicle: Klucel (hydroxypropylcellulose) (HPC) 89 % of control | dose: 350.0 mg/kg/injection, schedule: Q04DX003 (ip), vehicle: Klucel (hydroxypropylcellulose) (HPC) 97 % of control

CC(C(=O)c1ccc(O)c(O)c1)N1CCCCC1 (stereo unspecified)
inactive: [16] 102 % of control | [17] 102 % of control | [18] 96 % of control

N#CC(Nc1c(N)nc(-c2ccccc2)nc1N)c1ccc(N(CCCl)CCCl)cc1 (stereo unspecified)
inactive: dose: 50.0 mg/kg/injection, schedule: Q01DX001 (ip), vehicle: carboxymethylcellulose (CMC) 100 % of control | [16] 115 % of control | [17] 100 % of control | [18] 105 % of control

O=C1NC(=O)C2(CCCCCCC2)N1
inactive: dose: 50.0 mg/kg/injection, schedule: Q01DX009 (ip), vehicle: Klucel (hydroxypropylcellulose) (HPC) 104 % of control | dose: 50.0 mg/kg/injection, schedule: Q04DX003 (ip), vehicle: Klucel (hydroxypropylcellulose) (HPC) 111 % of control | [14] 96 % of control | [19] 99 % of control | [15] 96 % of control | [20] 103 % of control

Nc1cc(C(Cl)(Cl)Cl)nc(Cl)n1
inactive: [19] 105 % of control | [20] 94 % of control | dose: 400.0 mg/kg/injection, schedule: Q04DX003 (ip), vehicle: Klucel (hydroxypropylcellulose) (HPC) 94 % of control

CCOC(=N)c1ccc(C(=O)OCCOC)cc1
inactive: [11] 97 % of control | [12] 97 % of control | [13] 97 % of control

CC(O)(c1cccc(Cl)c1)C(c1ccccc1)c1ccccn1 (stereo unspecified)
inactive: [5] 101 % of control and 100 % of control | [6] 92 % of control and 106 % of control | [7] 101 % of control and 106 % of control
